Results: US20020028938A1, “Prostaglandin endoperoxide H synthase biosynthesis inhibitors” (priority 1997, published 2002)

How the values were obtained:
[1] = target: T1, recombinant human Cox-1 (r-hu Cox1) (Homo sapiens, UniProt P23219); assay: Recombinant human PGHS-1 enzyme assay (RHUCX1); format: biochemical; settings: for IC50: read-out: RHUCX1 IC50 (parenthetical value); for inhibition at 200 µM / inhibition at 100 µM: read-out: RHUCX1 % Inh. at Dose
T1 construct: made in house; host or cells: baculovirus/Sf9 insect cells (microsomes)
Outline: (§1)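 PGE2 formed with and without drug quantified by EIA against matrix-matched standards; percent inhibition relative to control mean, IC50 by linear regression.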

[2] = target: T2, human amnionic whole cell cyclooxygenase-2 (WISH cells) (Homo sapiens, UniProt P35354); assay: IL-1β induced PGE2 production in WISH cells; format: cell-based; settings: read-out: Wish IC50 (parenthetical value)
T2 construct: endogenous in cells; host or cells: human amnionic WISH cells, induced with IL-1beta
T2 sequence (P35354 18-604): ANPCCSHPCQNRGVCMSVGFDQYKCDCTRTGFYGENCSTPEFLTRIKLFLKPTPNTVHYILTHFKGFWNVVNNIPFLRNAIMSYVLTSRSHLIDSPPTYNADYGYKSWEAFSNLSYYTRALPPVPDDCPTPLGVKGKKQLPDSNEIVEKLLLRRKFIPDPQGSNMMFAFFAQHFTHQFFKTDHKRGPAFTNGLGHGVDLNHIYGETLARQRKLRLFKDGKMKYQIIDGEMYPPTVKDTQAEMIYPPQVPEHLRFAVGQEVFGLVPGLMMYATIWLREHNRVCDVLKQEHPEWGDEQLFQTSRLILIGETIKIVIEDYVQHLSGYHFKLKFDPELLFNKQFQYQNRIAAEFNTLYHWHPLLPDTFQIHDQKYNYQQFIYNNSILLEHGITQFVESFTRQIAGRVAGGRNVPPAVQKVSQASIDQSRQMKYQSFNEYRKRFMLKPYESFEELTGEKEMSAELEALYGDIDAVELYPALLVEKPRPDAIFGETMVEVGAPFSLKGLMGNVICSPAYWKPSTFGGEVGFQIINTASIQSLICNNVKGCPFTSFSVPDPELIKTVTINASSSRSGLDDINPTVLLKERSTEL
Outline: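 Confluent (80%) WISH cells were stimulated with 5 ng/ml IL-1β in serum-free Neuman-Tytell medium, with or without test compound in DMSO (0.01% v/v). PGE2 in the culture medium was measured by EIA against standards prepared in the same medium, read by optical density.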

[3] = target: T3, recombinant human Cox-2 (r-hu Cox-2) (Homo sapiens, UniProt P35354); assay: Recombinant human PGHS-2 enzyme assay (RHUCX2); format: biochemical; settings: read-out: RHUCX2 IC50 (parenthetical value)
T3 construct: made in house; host or cells: baculovirus/Sf9 insect cells (microsomes)
T3 sequence (P35354 18-604): T2 sequence (P35354 18-604)
Outline: as §1

[4] = system: air pouch prostaglandin biosynthesis (Cox-2); assay: Carrageenan induced air pouch prostaglandin biosynthesis model (CAP); format: in vivo, rat; settings: for inhibition in vivo at 3 mg/kg: 4 h, 3 mpk, rat, read-out: CAP % Inhib. @ 3 mpk; for ED50: Rattus norvegicus
Outline: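 Male Sprague Dawley rats with dorsal air pouches (20 mL air day 0, 10 mL day 3) received 0.2% lambda carrageenan in saline into the pouch on day 7. Compounds dosed at 0.1 to 10 mg/kg 30 min before carrageenan; pouch lavaged 4 h later, prostaglandins measured by EIA. Percent inhibition versus control mean; ED50 by linear regression.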

[5] = system: carrageenan induced paw edema; assay: Carrageenan induced paw edema (CPE) in rats; format: in vivo; settings: rat; for inhibition in vivo at 10 mg/kg: 10 mpk oral, 3 hours after carrageenan, read-out: CPE % Inhib. @ 10 mpk
Procedure: For oral administration, test compounds were suspended on the day of use in 100% polyethyleneglycol (PEG 400) with a motorized homogenizer equipped with a Teflon-coated pestle (TRI-R Instrument, Jamaica, N.Y.).
To compare the mean responses of the treatment groups, analysis of variance was applied. Percent inhibition values were determined by comparing the individual treatment mean values to the mean of the control group. Linear regression was used to estimate IC50's/ED50's in appropriate assays.
Hingpaw edema was […] in male rats as described by Winter et al., Proc. Soc. Exp. Biol. Med., 1962, 111, 544. Briefly, male Sprague-Dawley rats weighing between 170 and 190 g were administered test compounds orally 1 hour prior to the subplantar injection of 0.1 ml of 1% sodium carrageenan (lambda carrageenan, Sigma Chemical Co., St Louis, Mo.) into the right hindpaw. Right paw volumes (ml) were measured immediately following injection of carrageenan for baseline volume measurements using a Buxco plethysmograph (Buxco Electronics, Inc., Troy, N.Y.). Three hours after the injection of carrageenan, right paws were remeasured and paw edema calculated for each rat by subtracting the zero time reading from the 3 hour reading. Data are reported as mean percent inhibition +/−SEM. Statistical significance of results was analyzed by Dunnetts multiple comparison test where p<0.05 was considered statistically significant.

[6] = target: T4, Human Whole Platelet Cyclooxygenase-1 (Homo sapiens, UniProt P23219); assay: Human Whole Platelet Cyclooxygenase-1 assay (HWPX); format: cell-based; settings: for IC50: read-out: HWPX IC50 (parenthetical value)
T4 construct: from tissue; host or cells: human blood: isolated platelets (A4) or heparinised whole blood (A9)
Outline: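 Washed platelets from healthy-donor ACD blood were pre-incubated with compound for 10 min, then stimulated with calcium ionophore A23187 (8.8 μM final) for 10 min. Reaction stopped with cold 6 mM EDTA; thromboxane in supernatants quantified with a commercial kit.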

[7] = read-out: HWPX % Inhib. at Dose

T4 sequence (P23219 24-599): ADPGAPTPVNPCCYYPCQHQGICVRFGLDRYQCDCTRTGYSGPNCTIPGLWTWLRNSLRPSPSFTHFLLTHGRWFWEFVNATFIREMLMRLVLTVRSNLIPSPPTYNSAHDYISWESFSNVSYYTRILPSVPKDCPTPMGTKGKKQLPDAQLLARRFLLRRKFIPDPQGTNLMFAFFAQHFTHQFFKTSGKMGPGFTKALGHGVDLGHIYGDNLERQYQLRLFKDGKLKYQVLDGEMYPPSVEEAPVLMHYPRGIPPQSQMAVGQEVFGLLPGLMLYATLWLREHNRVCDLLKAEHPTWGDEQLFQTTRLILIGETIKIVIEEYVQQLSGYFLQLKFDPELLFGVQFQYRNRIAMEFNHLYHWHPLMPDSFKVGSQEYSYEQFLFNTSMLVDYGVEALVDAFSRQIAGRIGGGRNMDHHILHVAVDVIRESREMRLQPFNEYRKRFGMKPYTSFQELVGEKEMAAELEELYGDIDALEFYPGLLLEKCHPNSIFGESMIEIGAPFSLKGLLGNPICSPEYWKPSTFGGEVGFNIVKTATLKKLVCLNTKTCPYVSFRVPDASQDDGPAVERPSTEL
T1 sequence (P23219 24-599): as above

Row | Compound | IC50 [1] [nM] | melting point [°C] | IC50 [2] [nM] | IC50 [3] [nM] | inhibition in vivo at 3 mg/kg [4] [%] | inhibition in vivo at 10 mg/kg [5] [%] | inhibition at 10 µM ([6]; 10 μM, read-out: HWPX % Inhib. at Dose) [%] | inhibition at 100 µM [6, 7] [%] | inhibition at 200 µM [1] [%] | ED50 [4] [mg/kg] | IC50 [6] [nM] | inhibition at 100 µM [1] [%] | CPE ED30 ([5]; oral)
1 | CC(C)CCOc1c(-c2ccc(S(N)(=O)=O)cc2)cnn(-c2ccc(F)c(F)c2)c1=O [Example 445, 2-(3,4-Difluorophenyl)-4-(3-methyl-1-butoxy)-5-[4-(aminosulfonyl)phenyl]-3(2H)-pyridazinone] | 56600 | 149 to 151 | 25 | 69 | 73 | 15 | 22 | 100 | – | – | – | – | –
2 | CC(C)(C)COc1c(-c2ccc(S(N)(=O)=O)cc2)cnn(CC(F)(F)F)c1=O [Example 446] | – | 123 to 124 | 20 | 373 | 92 | 44 | – | – | 0 | 0.5 | 24400 | – | –
3 | CC(C)COc1c(-c2ccc(S(N)(=O)=O)cc2)cnn(CC(F)(F)F)c1=O [Example 449, 2-(2,2,2-Trifluoroethyl)-4-(2-methylpropoxy)-5-[4-(aminosulfonyl)phenyl]-3(2H)-pyridazinone] | – | 170 to 172 | 89 | 129 | 76 | 23 | – | – | 5 | 1.8 | 40000 | – | –
4 | CC(=O)CCOc1c(-c2ccc(S(C)(=O)=O)cc2)cnn(-c2ccc(F)c(F)c2)c1=O [Example 467, 2-(3,4-Difluorophenyl)-4-(3-oxo-1-butoxy)-5-[4-(methylsulfonyl)phenyl]-3(2H)-pyridazinone] | – | 134 to 135 | 135 | 1960 | – | – | – | – | – | 0.4 | – | 4 | ED30 = 1.7
5 | CC(C)(O)CCOc1c(-c2ccc(S(C)(=O)=O)cc2)cnn(-c2cccc(Cl)c2)c1=O [Example 475, 2-(3-Chlorophenyl)-4-(3-hydroxy-3-methyl-1-butoxy)-5-[4-(methylsulfonyl)phenyl]-3(2H)-pyridazinone] | – | – | 440 | 710 | – | 33 | – | 50 | – | 1.4 | – | 0 | –
6 | CC(C)(O)COc1c(-c2ccc(S(N)(=O)=O)cc2)cnn(-c2ccc(F)cc2)c1=O [Example 478, 2-(4-Fluorophenyl)-4-(2-hydroxy-2-methyl-1-propoxy)-5-[4-(aminosulfonyl)phenyl]-3(2H)-pyridazinone] | – | 155 to 158 | 108 | 810 | 75 | 26 | – | – | – | – | 500 | 33 | –
7 | CC(=O)NS(=O)(=O)c1ccc(-c2cnn(CC(F)(F)F)c(=O)c2OCC(C)(C)CO)cc1 [Example 528, N-[[4-[2-(2,2,2-Trifluoroethyl)-4-(3-hydroxy-2,2-dimethyl-1-propoxy)-2H-pyridazin-3-on-5-yl]phenyl]sulfonyl]acetamide] | 3400 | – | 54 | 720 | – | 40 | – | – | – | 1.4 | 3500 | – | –
